Data: patent publication US9173923B2, “Modulating innate immune cell activity by lunasin and selected cytokines” (Indiana University Research & Technology Corporation, priority 2011, dated 2015)

Assays:
[1] = system: peripheral blood mononuclear cells (PBMCs); CD3 negative and CD56 positive NK cell populations; test: Intracellular cytokine staining of IFNγ in stimulated PBMCs of normal controls (flow cytometry); assay type: cell-based, human; conditions: 1 day
Method: (§1) FIG. 1 IFNγ production by primary NK cells following stimulation. Human primary NK cells were isolated from peripheral blood mononuclear cells (PBMCs) of normal controls using positive selection with CD56 magnetic beads (Miltenyi Biotec Auburn. CA). […] At the last 6 hrs of stimulation, golgistop (monensin) was added to block the secretion of IFNγ. Stimulated PBMCs were surface stained with FITC-conjugated CD3 and PE-congugated CD56 monoclonal antibodies (BD), washed, fixed, and permeabilized. After washing, cells were incubated with APC-conjugated anti IFNγ monoclonal antibody. Expression of IFNγ was evaluated on 5000 events of gated CD3 negative and CD56 positive NK cell populations. The % of NK populations producing IFNγ is labeled at the upper right quadrant of the dot plot. (B) IFNγ production in the supernatants. […] The cell pellets from (B) were analyzed for gene expression using qPCR with Taqman Assay primers. […]
Following 1 day of stimulation, distinct cell populations that respond to stimulation were evaluated using intracellular cytokine staining for IFNγ production. […]
Aliquots of PBMCs isolated from healthy volunteer donors were cryopreserved in liquid nitrogen for the following assays. […] Expression of IFNγ was evaluated on 5000 events of gated CD3 negative and CD56 positive NK cell populations. […] The cell pellets were analyzed for gene expression using qPCR with Taqman Assay primers. […]

[2] = system: human primary NK cells; test: IFNγ production in supernatants of purified NK cells (ELISA); assay type: cell-based; conditions: 1 day
Method: as §1
FIG. 7 Dose-dependent effects of lunasin on IFNγ production, Human NK cells isolated as described in FIG. 1 were stimulated with IL-12 at 1 or 10 ng/ml in the absence (A) or presence (B) of various concentrations of lunasin. One day following stimulation, The production of IFNg in the supernatants was determined using ELISA. […]
One day following stimulation. The production of IFNg in the supernatants was determined using ELISA. […]

[3] = system: human primary NK cells; test: Gene expression by primary NK cells (real time qPCR, Taqman Assay); assay type: cell-based
Description: FIG. 3 Synergistic effects of lunasin and cytokines on gene expression by human primary NK cells. […] One day following the stimulation, the cell pellets were resuspended in Trizol Reagents for total RNA extraction. The first-strand cDNA was synthesized followed by real time qPCR using Taqman Assay with primers for IFNγ(IFNG), granzyme B (GZMB), granulysin (GNLY), chemokine (C-C motif) ligand 3 or CCL3 (CCL3), CCL4 (CCL4). Granulocyte-macrophage colony-stimulating factor or GM-CSF (CSF2) TGFβ (TGFB) and TGFβ receptor (TGFBR2) in ABI 7300 (Applied Biosystems by Life Technologies, Carlsbad CA) Data are presented as mean±SD from 2 duplicates. Results shown are representative over 5 different normal controls. […]
One day following the stimulation, the cell pellets were resuspended in Trizol Reagents for total RNA extraction. The first-strand cDNA was synthesized followed by real time qPCR using Taqman Assay with primers for IFNγ (IFNG), granzyme B (GZMB), granulysin (GNLY), chemokine (C-C motif) ligand 3 or CCL3 (CCL3), CCL4 (CCL4), Granulocyte-macrophage colony-stimulating factor or GM-CSF (CSF2), TGFβ (TGFB) and TGFβ receptor (TGFBR2) in ABI 7300 (Applied Biosystems by Life Technologies, Carlsbad, Calif.). Data are presented as mean±SD from duplicates. Results shown are representative over 5 different normal controls.
Following 1, 2, and 3 days of stimulation, the cell pellets were lysed in Trizol Reagents for total RNA extraction. The first-strand cDNA was synthesized followed by real time qPCR using Taqman Assay with primer for TGFB1 and TGFBR2 in ABI 7300. Results are presented as mean±SD from duplicates. […]
Freshly isolated human NK cells from peripheral blood mononuclear cells (PBMCs) of normal control using positive selection with CD56 magnetic beads (Miltenyi Biotec, Auburn, Calif.) were stimulated with medium only (−), IL-12 (10 ng/ml) or IL-12 (10 ng/ml)+lunasin (5 μM) for 1 day. The cell pellets were lysed in Trizol Reagents for total RNA extraction. The first-strand cDNA was synthesized followed by real time qPCR using Taqman Assay with primer for inhibitory receptors KIR3DL1 (upper panel) and KIR3DL2 (lower panel) in ABI 7300.

[4] = system: NK cells isolated from lungs; test: Ifng gene expression in lung NK cells of mice gavaged with lunasin; assay type: in vivo, Balb/c mice; conditions: 4 mg lunasin by gavage for 3 consecutive days
Method: FIG 24 Gene expression of Ifng from mice treated with lunasin. Balb/c mice were gavaged with […] of water only (H2O) or 4 mg of lunasin in […] water (Lunasin) for 3 consecutive days. One day after the last gavage. mice were sacrificed to collect the lungs. NK cells were isolated from lungs of each mouse using positive selection with DX5 magnetic beads (Miltenyi Biotec) followed by RNA extraction, cDNA synthesis and real time qPCR using Taqman assay primers (ABI). Gene expression for IFNg (Ifng) from lungs is presented as mean±SD from 2 mice in each group.
Balb/c mice were gavaged with 200 μl of water only (H2O) or 4 mg of lunasin in 200 μl water (Lunasin) for 3 consecutive days. One day after the last gavage, mice were sacrificed to collect the lungs and spleens. NK cells were isolated from each lung and spleen using positive selection with DX5 magnetic beads (Miltenyi Biotec) followed by RNA extraction, cDNA synthesis and real tune qPCR using Taqman assay primers (ABE). Gene expression for Ifng from lungs (upper panel) and spleens (lower pannel) is presented as mean±SD from 2 mice in each group.

[5] = system: allergic inflammation; test: LPS-induced asthma mouse model; assay type: in vivo, BABL/c mice
Method: FIG. 25 Lunasin-treated mice have reduced allergic inflammation in a mouse model of asthma. In LPS-induced asthma model BABL/c mice were sensitized intranasally with 0.1 μg of LPS at day 0, 1, and 2 with (LS) or without (Ctrl) lunasin peptide at 4 mg, and then challenged with 50 μg of OVA on days 19, 20 and 21. Another group of mice (LC) was sensitized as the Ctrl group followed by challenging with OVA in the presence of lunasin at 4mg. The total cell numbers (A) and differential cell numbers of eosinophils (B) were counted from the BAL fluid. Data are presented as mean±SD from 3 mice in each group. *,P<0.05; ns not-significant p>0.05. (C) Cells from draining lympho nodes (mediastinal) were stimulated with OVA, and the levels of IL-4 production in the supernatants were evaluated using ELISA. Data are presented as mean ±SD from 3 mice in each group. ***, P<0.005; ns, not-significant, p>0.05.
In LPS-induced asthma model, BABL/c mice were sensitized intranasally with 0.1 μg of LPS at day 0, 1, and 2 with (LS) or without (Ctrl) lunasin peptide at 4 mg, and then challenged with 50 ug of OVA on days 19, 20, and 21. […] The total cell numbers (A) and differential cell numbers of eosinophils (B) were counted from the BAL fluid. […] (C) Cells from draining lympho nodes (mediastinal) were stimulated with OVA, and the levels of IL-4 production in the supernatants were evaluated using ELISA. […]

[6] = cited from earlier work
[7] = system: acetylation of histone H3 and H4; conditions: extracted from autoclaved soybean products or blood of rats fed LES; cited from earlier work
[8] = boiling; cited from earlier work
[9] = system: mouse NK cells; test: IFNγ produced by NK cells from tumor-bearing mice with or without etoposide chemotherapy (ELISA); assay type: cell-based; conditions: reduced Stat4; mouse IL-12 2 ng/ml or human IL-2 50 units/ml, lunasin 20 μM; 1 day
Method: Mouse NK cells were positively selected from spleens of tumor-bearing mice with (+Eto) or without (−Eto) chemotherapeutic drug etoposide. Isolated NK cells were stimulated with mouse IL-12 at 2 ng/ml with (+) or without (−) lunasin peptide (A) or human IL-2 at 50 units/ml with (+) or without (−) lunasin at 20 μM (B). The production of IFNγ in the supernatant after 1 day of stimulation was determined using ELISA. Results are presented as mean±SD from 3 mice. ND is not detectable.

Molecule	IFNγ intracellular staining by cell population (NK, CD4 and CD8 T) [1]	production of IFNγ in the supernatants [2]	CCL3 gene expression ([3]; 1 day)	CCL4 gene expression ([3]; 1 day)	CSF2 (GM-CSF) gene expression ([3]; 1 day)	GMT gene expression ([3]; 1 day, lunasin alone)	IFNG gene expression ([3]; human cells, qPCR)	gene expression of Ifng in the lung [4]	production of IL-4 ([5]; draining lymph node cells stimulated with OVA, ELISA)	cell counts in the bronchoalveolar lavage (BAL) fluid ([5]; lunasin 4 mg intranasal)	distribution of gavaged lunasin ([6]; gavage)	lunasin levels in the blood after oral consumption ([6]; oral)	survival of digestion in the gastrointestinal tract ([6]; oral)	bioactivity after autoclaving or feeding (inhibiting acetylation of histone H3 and H4) [7]	heat stability [8]	GZMB (granzyme B) gene expression ([3]; 1 day, lunasin 20 μM, compared to cytokine alone)	IFNγ production by NK cells from tumor-bearing mice following chemotherapy (+etoposide) [9]
lunasin	NK but not CD4 or CD8 T populations respond	moderate effects	sufficient to up-regulate	sufficient to up-regulate	sufficient to up-regulate	no effects	moderate effects	increased gene expression of Ifng	reduced production of IL-4	lower cell counts	can be found in the lung and blood	Significant levels of lunasin could be detected in the blood	survives digestion in the gastrointestinal tract	still active	heat-stable	–	–
IL-12 (protein, UniProt P43431 23-215; P43432 23-335, looked up) Interleukin-12 subunit alpha: RVIPVSGPARCLSQSRNLLKTTDDMVKTAREKLKHYSCTAEDIDHEDITRDQTSTLKTCLPLELHKNESCLATRETSSTTRGSCLPPQKTSLMMTLCLGSIYEDLKMYQTEFQAINAALQNHNHQQIILDKGMLVAIDELMQSLNHNGETLRQKPPVGEADPYRVKMKLCILLHAFSTRVVTINRVMGYLSSA Interleukin-12 subunit beta: MWELEKDVYVVEVDWTPDAPGETVNLTCDTPEEDDITWTSDQRHGVIGSGKTLTITVKEFLDAGQYTCHKGGETLSHSHLLLHKKENGIWSTEILKNFKNKTFLKCEAPNYSGRFTCSWLVQRNMDLKFNIKSSSSSPDSRAVTCGMASLSAEKVTLDQRDYEKYSVSCQEDVTCPTAEETLPIELALEARQQNKYENYSTSFFIRDIIKPDPPKNLQMKPLKNSQVEVSWEYPDSWSTPHSYFSLKFFVRIQRKKEKMKETEEGCNQKGAFLVEKTSTEVQCKGGNVCVQAQDRYYNSSCSKWACVPCRVRS	–	–	–	–	–	–	–	–	–	–	–	–	–	–	–	no further induction of GZMB	secreted less IFNγ
